According to ChEMBL document CHEMBL5050859, “Gpx4 inhibitors, pharmaceutical compositions thereof, and their use for treating gpx4-mediated diseases” (2021):

Test system: Huh-7
Test: Antiproliferative activity against human Huh-7 cells after 24 hrs by Cell Titer Glo assay
Type: functional, cell-based
Details: Huh-7, 24 h

EC50	SMILES
≤ 100 nM	C#CC(=O)N(c1cccc(C(=O)OC)c1)C(C(=O)NCc1ccccc1)c1cccs1 (centres undefined)
100 nM	COc1ccc(N(C(=O)CCl)C(C(=O)NCCc2ccccc2)c2ccc(N)cc2)cc1Cl (centres undefined)
100 nM	C#CC(=O)N(c1cccc(Cl)c1)C(C(=O)NC(C)(C)C)c1ccc(N)cc1 (centres undefined)
100 nM	C#CC(=O)N(Cc1ccc(C(=O)OC)cc1)C(C)C(=O)NCc1ccccc1 (centres undefined)
≤ 100 nM	C#CC(=O)N(c1cccc(C#N)c1)C(C(=O)NCc1ccccc1)c1ccccc1 (centres undefined)
≤ 100 nM	C#CC(=O)N(C1(C(=O)NCc2ccccc2)CCOCC1)C1(c2ccccc2)CC1
100 nM	C#CC(=O)N(c1cccc(Cl)c1)[C@]1(C(=O)NCc2ccccc2)CC[C@H](O)CC1
500 nM	C#CC(=O)N(c1cccc(Cl)c1)C(C(=O)NCc1ccccc1)C1CCOCC1 (centres undefined)
≤ 100 nM	C#CC(=O)N(c1ccc2c(c1)OC(F)(F)O2)C(C(=O)NCc1ccccc1)c1ccccc1 (centres undefined)
2000 nM	C#CC(=O)N(c1cccc(Cl)c1)C1(C(=O)NCC(=O)N2CCCC(O)C2)CCOCC1 (centres undefined)
> 10000 nM	C#CC(=O)N(Cc1cc[nH]n1)C1(C(=O)NCc2ccccc2)CCOCC1
100 nM	C#CC(=O)N(c1cccc(Cl)c1)C(C(=O)NCc1ccccc1)C1CC1 (centres undefined)
≤ 100 nM	C#CC(=O)N(c1cccc(Cl)c1)C1(C(=O)NCc2ccccc2)CCCC(=O)C1 (centres undefined)
≤ 100 nM	C#CC(=O)N(c1ccc(OC)cc1)C(C(=O)NCc1ccccc1)c1ccc(N)cc1 (centres undefined)
≤ 100 nM	C#CC(=O)N(c1cccc(C(=O)OC)c1)C(C(=O)NCc1ccccc1)c1cccc(N)c1 (centres undefined)
≤ 100 nM	C#CC(=O)N(c1cccc(Cl)c1)C1(C(=O)NCc2ccccc2)CCCOC1 (centres undefined)
> 10000 nM	O=C(C#CCO)N(c1cccc(Cl)c1)C1(C(=O)NCc2ccccc2)CCOCC1
> 10000 nM	C=C(F)C(=O)N(c1ccc2c(cnn2C)c1)C1(C(=O)NCc2ccccc2)CCOCC1
2000 nM	C#CC(=O)N(C1CCC(=O)N(C)C1)C(C(=O)NCc1ccccc1)c1ccccc1 (centres undefined)
2000 nM	C#CC(=O)N(c1ccc(CO)cc1)C(C(=O)NC(C)(C)C)c1cccc(N)c1 (centres undefined)
100 nM	C#CC(=O)N(c1cccc(OC)c1)C(C(=O)NC(C)(C)C)c1ccc(N)cc1 (centres undefined)
≤ 100 nM	C#CC(=O)N(c1ccc(OC)cc1OC)C1(C(=O)NCc2ccccc2)CCOCC1
≤ 100 nM	COc1ccc(N(C(=O)CCl)C2(C(=O)NCc3ccccc3)CCC(F)(F)CC2)cc1Cl
≤ 100 nM	C#CC(=O)N(c1cc(Cl)ccc1I)C(C(=O)NCc1ccccc1)c1ccccc1 (centres undefined)
≤ 100 nM	C#CC(=O)N(Cc1cccc(O)c1)C1(C(=O)NCc2ccccc2)CCOCC1

EC50	SMILES
≤ 100 nM	COc1ccc(N(C(=O)CCl)C2(C(=O)NCCc3ccccc3)CCOCC2)cc1Cl
> 10000 nM	C=CC(=O)N(CCc1ccccc1)C1(C(=O)NCc2ccccc2)CCOCC1
100 nM	C#CC(=O)N(c1ccc(N(C)C)cc1)C1(C(=O)NCc2ccccc2)CCOCC1
100 nM	C#CC(=O)N(Cc1cccc(O)c1)C1(C(=O)NCc2ccccc2)CCCC(C(=O)OC)C1 (centres undefined)
≤ 100 nM	C#CC(=O)N(c1ccc(OC)c(Cl)c1)C(C(=O)NCc1ccccc1)c1ccc(N)cc1 (centres undefined)
2000 nM	C#CC(=O)N(c1cccc(NC(C)=O)c1)C(C(=O)NCc1ccccc1)c1ccc(N)cc1 (centres undefined)
500 nM	C#CC(=O)N(c1cccc(Cl)c1)C1(C(=O)NCS(=O)(=O)c2ccc(C)cc2)CCOCC1
2000 nM	O=C(NCCc1ccccc1)C(c1ccc([N+](=O)[O-])cc1)N(C(=O)CCl)c1cccc(O)c1 (centres undefined)
100 nM	C#CC(=O)N(c1cccc(Cl)c1)C(C(=O)NCc1ccccc1F)c1ccccc1 (centres undefined)
≤ 100 nM	C#CC(=O)N(c1cccc(Cl)c1)C(C(=O)NCC1COC1)c1ccccc1 (centres undefined)
≤ 100 nM	C#CC(=O)N(c1cccc(C(=O)OC)c1)C(C(=O)NCc1ccccc1)c1ccc(N)cc1 (centres undefined)
> 10000 nM	Cn1ncc2cc(N(C(=O)CO)C3(C(=O)NCc4ccccc4)CCOCC3)ccc21
2000 nM	C#CC(=O)N(c1cccc(O)c1)C(C(=O)NCc1ccccc1)c1ccc(N)cc1 (centres undefined)
≤ 100 nM	C#CC(=O)N(c1cccc(Cl)c1)C(C(=O)NCc1ccc(C#N)cc1)c1ccccc1 (centres undefined)
≤ 100 nM	C#CC(=O)N(c1cccc2cnn(C)c12)C(C(=O)NCc1ccccc1)c1ccccc1 (centres undefined)
500 nM	C#CC(=O)N(C1CCC1)C1(C(=O)NCc2ccccc2)CCCC(C(=O)OC)C1 (centres undefined)
2000 nM	O=C(NCCc1ccccc1)C(c1ccc([N+](=O)[O-])cc1)N(Cc1cccs1)C(=O)CCl (centres undefined)
≤ 100 nM	C#CC(=O)N(c1cccc(Cl)c1)C(C(=O)NCc1ccccc1)c1cccc(N)c1 (centres undefined)
> 10000 nM	CC(C)N(C(=O)CCl)C(C(=O)NCCc1ccccc1)c1cccs1 (centres undefined)
2000 nM	C#CC(=O)N(c1cccc(S(C)(=O)=O)c1)C(C(=O)NC(C)(C)C)c1ccc(N)cc1 (centres undefined)
500 nM	C#CC(=O)N(c1cccc(Cl)c1)C(C(=O)NCc1ccccc1)c1ccncc1 (centres undefined)
≤ 100 nM	C#CC(=O)N(c1ccc(OC)cc1)C(C(=O)NCc1ccccc1)c1cccc(N)c1 (centres undefined)
100 nM	C#CC(=O)N(c1cccc(S(C)(=O)=O)c1)C(C(=O)NCc1ccccc1)c1ccccc1 (centres undefined)
100 nM	C#CC(=O)N(c1cccc(Cl)c1)C1(C(=O)NCC(=O)NCc2ccccc2C#N)CCOCC1
> 10000 nM	N#CCC(=O)N(c1cccc(Cl)c1)C1(C(=O)NCc2ccccc2)CCOCC1

EC50	SMILES
≤ 100 nM	C#CC(=O)N(c1cccc(Cl)c1)C1(C(=O)NCc2cccc(Cl)c2)CCOCC1
100 nM	C#CC(=O)N(c1cccc(Cl)c1)C(C(=O)NCc1ccccc1)c1cccc(OCC(=O)OC)c1 (centres undefined)
≤ 100 nM	C#CC(=O)N(c1cccc(OC)c1)C(C(=O)NCc1ccccc1)c1ccc(N)cc1 (centres undefined)
2000 nM	Nc1cccc(N(C(=O)CCl)C(C(=O)NCCc2ccccc2)c2cccs2)c1 (centres undefined)
≤ 100 nM	C#CC(=O)N(c1cccc(Cl)c1)C1(C(=O)NCc2ccccc2)CCC(=O)CC1
500 nM	COc1ccc(N(C(=O)CCl)C(C(=O)NCCc2ccccc2)c2ccc(NC(=O)CO)cc2)cc1Cl (centres undefined)
≤ 100 nM	C#CC(=O)N(c1ccc2c(cnn2C)c1)C1(C(=O)NCc2ccccc2)CCCOC1 (centres undefined)
100 nM	C#CC(=O)N(c1cccc2nonc12)C(C(=O)NCc1ccccc1)c1ccccc1 (centres undefined)
100 nM	C#CC(=O)N(c1cccc(C#N)c1)C(C(=O)NCc1ccccc1)c1cccc(N)c1 (centres undefined)
100 nM	C#CC(=O)N(c1cccn2cnnc12)C(C(=O)NCc1ccccc1)c1ccccc1 (centres undefined)
≤ 100 nM	C#CC(=O)N(c1ccc(C(=O)OC)cc1)C(C(=O)NCc1ccccc1)c1ccc(N)cc1 (centres undefined)
≤ 100 nM	C#CC(=O)N(c1cccc2c1OCO2)C1(C(=O)NCc2ccccc2)CCOCC1
≤ 100 nM	C#CC(=O)N(c1cccc(Cl)c1Cl)C(C(=O)NCc1ccccc1)c1ccccc1 (centres undefined)
500 nM	Cn1ncc2cc(N(C(=O)CCl)C3(C(=O)NCCc4ccccc4)CCOCC3)ccc21
500 nM	C#CC(=O)N(Cc1ccccc1)C(C(=O)NCc1ccccc1)c1cccc(N)c1 (centres undefined)
≤ 100 nM	C#CC(=O)N(c1ccc2cnn(C)c2c1)C(C(=O)NCc1ccccc1)c1ccccc1 (centres undefined)
2000 nM	CC(=O)Nc1cccc(N(C(=O)CCl)C(C(=O)NCCc2ccccc2)c2ccc([N+](=O)[O-])cc2)c1 (centres undefined)
> 10000 nM	C=CC(=O)N(C1CCC1)C1(C(=O)NCc2ccccc2)CCOCC1
≤ 100 nM	C#CC(=O)N(c1cccc(Cl)c1)C(C(=O)NCc1ccccc1)c1ccc(N)cc1 (centres undefined)
100 nM	C#CC(=O)N(c1cccc(-c2cc[nH]n2)c1)C1(C(=O)NCc2ccccc2)CCOCC1
100 nM	C#CC(=O)N(c1ccc(OC)c(Cl)c1)C(C(=O)NC(C)(C)C)c1cccc(N)c1 (centres undefined)
> 10000 nM	C#CC(=O)N(c1ccc(S(N)(=O)=O)cc1)C(C(=O)NCc1ccccc1)c1cccc(N)c1 (centres undefined)
2000 nM	O=C(NCCc1ccccc1)C(c1ccc([N+](=O)[O-])cc1)N(Cc1ccccc1)C(=O)CCl (centres undefined)
> 10000 nM	CC(Cl)C(=O)N(c1ccc2c(cnn2C)c1)C1(C(=O)NCc2ccccc2)CCOCC1 (centres undefined)
2000 nM	C#CC(=O)N(c1ccc2[nH]ccc2c1)C1(C(=O)NCc2ccccc2)CCOCC1

EC50	SMILES
> 10000 nM	C=CC(=O)N(c1ccc(OC)c(Cl)c1)C(C(=O)NCc1ccccc1)c1cccc(N)c1 (centres undefined)
> 10000 nM	C#CC(=O)N(c1cccc(C(N)=O)c1)C(C(=O)NCc1ccccc1)c1cccc(N)c1 (centres undefined)
100 nM	C#CC(=O)N(c1cccc(Cl)c1)C1(C(=O)NCC(=O)Nc2ccccc2)CCOCC1
≤ 100 nM	C#CC(=O)N(c1cccc(Cl)c1)C(C(=O)NCc1ccc(F)cc1)c1ccccc1 (centres undefined)
≤ 100 nM	C#CC(=O)N(c1ccc(Cl)cc1)C(C(=O)NCc1ccccc1)c1cccc(N)c1 (centres undefined)
2000 nM	C#CC(=O)N(c1cccc(Cl)c1)C1(C(=O)NCc2ccccc2)CCCC(O)C1 (centres undefined)
> 10000 nM	C#CC(=O)N(c1cccc(Cl)c1)C1(C(=O)NCC(=O)O)CCOCC1
100 nM	C#CC(=O)N(c1ccc2c(cnn2C)c1)C1(C(=O)NCc2ccccc2)CCCC(=O)C1 (centres undefined)
100 nM	C#CC(=O)N(c1cccc(F)c1)C(C(=O)NCc1ccccc1)c1cccc(N)c1 (centres undefined)
> 10000 nM	C#CC(=O)N(c1cccc(C(N)=O)c1)C(C(=O)NCc1ccccc1)c1ccc(N)cc1 (centres undefined)
> 10000 nM	CN(C)C/C=C/C(=O)N(c1ccc2c(cnn2C)c1)C1(C(=O)NCc2ccccc2)CCOCC1
100 nM	COc1ccc(N(C(=O)CCl)C(C(=O)NCCc2ccccc2)c2cccc(N)c2)cc1Cl (centres undefined)
> 10000 nM	CC#CC(=O)N(c1ccc2c(cnn2C)c1)C1(C(=O)NCc2ccccc2)CCOCC1
500 nM	C#CC(=O)N(c1cccc(Cl)c1)C1(C(=O)NCC(=O)OCC)CCOCC1
≤ 100 nM	C#CC(=O)N(c1cccc2c1CCC2=O)C(C(=O)NCc1ccccc1)c1ccccc1 (centres undefined)
100 nM	O=C(CCl)N(c1cccc2nsnc12)C1(C(=O)NCc2ccccc2)CCOCC1
≤ 100 nM	C#CC(=O)N(c1cccc(Cl)c1)C(C(=O)NCC1CC1)c1ccccc1 (centres undefined)
100 nM	C#CC(=O)N(c1cccc(Cl)c1)C(C(=O)NC(C)(C)C)c1cccc(N)c1 (centres undefined)
2000 nM	COc1ccc(N(C(=O)C#CCO)C(C(=O)NCCc2ccccc2)c2cccs2)cc1Cl (centres undefined)
> 10000 nM	C#CC(=O)N(CCc1ccccc1)C1(C(=O)NCc2ccccc2)CCCC(C(=O)O)C1 (centres undefined)
≤ 100 nM	C#CC(=O)N(c1cc2c(cc1I)OCO2)C(C(=O)NCc1ccccc1)c1ccccc1 (centres undefined)
500 nM	COc1ccc(N(C(=O)CCl)C(C(=O)NC(C)(C)C)c2cccs2)cc1Cl (centres undefined)
≤ 100 nM	C#CC(=O)N(c1ccc2c(c1)OCO2)C(C(=O)NCc1ccccc1)c1ccccc1 (centres undefined)
≤ 100 nM	C#CC(=O)N(c1ccc(OC)c(Cl)c1)C(C(=O)NCc1ccccc1)c1cccc(N)c1 (centres undefined)
